Assay results taken from patent US9314024B2, “Herbicidal compositions comprising aminopyralid and bentazon” (Dow AgroSciences LLC, priority 2012, dated 2016).

How the values were obtained:
Assay in all cases: Postemergence herbicidal activity, field trial in rice, Espinal, Colombia
Settings in all cases: 29 DAA, postemergence foliar
[1] = tested on: Phyllanthus niruri L. (gripeweed, PYLNI); type: in vivo
Experimental: (§1) These trials were conducted under field conditions in Espinal, Colombia. Trial sites were located in commercially grown fields of common rice (Oryza sativa). The rice crop was grown using normal cultural practices for fertilization, seeding, and maintenance to ensure good growth of the crop and the weeds. The trials were conducted using normal research methodology. Trial plots were 2 meters (m) wide by 5 m long. All treatments were applied using a randomized complete block trial design with 4 replications per treatment. The trial sites had naturally occurring populations of weeds. The weed spectrum included, but was not limited to, Cyperus iria L. (rice flatsedge, CYPIR), Phyllanthus niruri L. (gripeweed, PYLNI) and Corchorus spp (jute, CRGSS). The plots were treated with a postemergence foliar application 19 days after emergence of the rice.
(§2) Treatments consisted of tank mixes of aminopyralid triisopropanolammonium salt (MILESTONE 240SL) and commercially available formulations of bentazon herbicide (BASAGRAN 480SL). The application volume was 200 liters per hectare (L/ha) of water. All application were made using precision gas hand sprayers with a 2 m boom using flat fan (8002) nozzles to broadcast the treatments over the top of the rice and weeds.
(§3) The treated plots and control plots were rated blind at various intervals after application. Ratings were based on Percent (%) Visual weed control, where 0 corresponds to no injury and 100 corresponds to complete kill.
(§4) Colby's equation was used to determine the herbicidal effects expected from the mixtures (Colby, S. R. Calculation of the synergistic and antagonistic response of herbicide combinations. Weeds 1967 15, 20-22).
(§5) The following equation was used to calculate the expected activity of mixtures containing two active ingredients, A and B: Expected=A+B−(A×B/100)
(§6) A=observed efficacy of active ingredient A at the same concentration as used in the mixture;
(§7) B=observed efficacy of active ingredient B at the same concentration as used in the mixture.

[2] = tested on: Cyperus iria L. (rice flatsedge, CYPIR); type: in vivo
Experimental: as §1, §2, §3, §4, §5, §6, §7

[3] = tested on: Corchorus spp (jute, CRGSS); type: in vivo, Corchorus sp
Experimental: as §1, §2, §3, §4, §5, §6, §7

SMILES	Visual Weed Control (%) PYLNI Obs ([1]; aminopyralid 4 g ae/ha alone) [%]	Visual Weed Control (%) PYLNI Obs ([1]; aminopyralid 8 g ae/ha alone) [%]	Visual Weed Control (%) PYLNI Obs ([1]; aminopyralid 16 g ae/ha alone) [%]	Visual Weed Control (%) CYPIR Obs ([2]; aminopyralid 4 g ae/ha alone) [%]	Visual Weed Control (%) CYPIR Obs ([2]; aminopyralid 8 g ae/ha alone) [%]	Visual Weed Control (%) CYPIR Obs ([2]; aminopyralid 16 g ae/ha alone) [%]	Visual Weed Control (%) CRGSS Obs ([3]; aminopyralid 4 g ae/ha alone) [%]	Visual Weed Control (%) CRGSS Obs ([3]; aminopyralid 8 g ae/ha alone) [%]	Visual Weed Control (%) PYLNI Obs ([1]; bentazon 180 g ai/ha alone) [%]	Visual Weed Control (%) CYPIR Obs ([2]; bentazon 180 g ai/ha alone) [%]	Visual Weed Control (%) CRGSS Obs ([3]; bentazon 180 g ai/ha alone) [%]
Nc1cc(Cl)nc(C(=O)O)c1Cl [Aminopyralid, 4-amino-3,6-dichloro-2-pyridinecarboxylic acid]	0	0	0	0	0	41	48	70	–	–	–
CC(C)N1C(=O)c2ccccc2NS1(=O)=O [Bentazon, 3-(1-methylethyl)-1H-2,1,3-benzothiadiazin-4(3H)-one 2,2-dioxide]	–	–	–	–	–	–	–	–	19	74	80
